Measurements reported in patent EP1996603B1, “LIPID A ANTAGONISTS WITH ANTI-SEPTIC SHOCK, ANTI-INFLAMMATORY, ANTI-ISCHEMIA AND ANALGESIC ACTIVITY” (Università Degli Studi Di Milano - Bicocca, priority 2006, dated 2007).

What was measured:
[1] = tested on: ischemia-induced EEG flattening; test: Cerebral ischemia by bilateral carotid occlusion, EEG spectral power; format: in vivo, Mongolian gerbils (Meriones unguiculatus); conditions: 10 mg/kg i.p. 30 min before bilateral carotid occlusion; starting from 1 hour after recirculation
Procedure: After implanting EEG electrodes, the gerbils were divided into different groups on the basis of the assigned treatment. Their electroencephalogram (EEG) was recorded for 1 h a day, for three days, to determine the basal total and relative spectral power. The signals were recorded and processed for fast Fourier transform spectral analysis by means of PC software (PowerLab, AD Instruments, Pty, Ltd, Australia). EEG recordings were also made for seven days after ischemia. After basal EEG recordings, each gerbil was again lightly anaesthetised and 10-min. ischemia was induced by bilateral common carotid arteries occlusion. The ischemia was verified qualitatively on paper by the complete flattening of the EEG. A group of animals (sham-operated) underwent the same surgical procedure except that the carotid arteries were not clamped. Compound Id was i.p. administered to the animals at the dose of 10 mg/kg 30 minutes before ischemia induction.

[2] = tested on: TLR9; test: TNFα production after stimulation with CpG (TLR9 selectivity); format: cell-based, Mouse; conditions: stimulation through CpG, recognized by TLR9
Procedure: • Figure 1. Antagonistic activity of compounds Ia, Ic and Id on lipid A-stimulated cytokine production in BMDC, BMØ and D1 cells. TNFα production was measured in the supernatants 24 h later. From the right: lipid A (0.5µM), cells treated with lipid A alone; DMSO: cells incubated in the presence of complete medium plus DMSO; inhibitor 50 µM, cells treated only with monosaccharides Ia, Ic and Id; other columns, lipid A + compounds […] at increasing doses. The data represent means and standard deviations of triplicate wells. This is a representative of three independent experiments. *, p < 0.05; **, p < 0.01; ***, p< 0.001. • Figure 2. TLR-4 selectivity of monosaccharide Id. […] IL-1β was measured in the supernatants by ELISA. […] Lower panels, TNFα production measured by ELISA 24 h after stimulation with CpG (selective for TLR-9) or PAM3Cys-SK4 (selective for TLR-2) in the presence of compound Id. […] The cells were then analyzed by FACS for the presence of annexin V and propidium iodide (PI) double positive cells. […] NF-kB activation was evaluated in the nuclear extract 2 h later and expressed as optical density (OD) at 450 nm. […] Effect of different doses of compound Id on carrageenan induced edema in mice measured 4h after the exposure and expressed as difference between the paw volume of treated paw versus the contralateral paw. […]

With `CCCCCCCCCCCCCCO[C@H]1[C@@H](OC)O[C@H](C[N+](C)(C)C2CCCC2)[C@@H](O)[C@@H]1OCCCCCCCCCCCCCC` [Compound Id, methyl 6-deoxy-6-N,N',N"-dimethylcyclopentylammonium-2,3-di-O-tetradecyl-α-D-glucopyranoside] the “ischemia-induced EEG flattening” value [1] was “able to significantly antagonize the ischemia-induced EEG flattening” and the TNFα production [2] was “not inhibited”.
